Columns and labels:
human CD38 = biological target: T1, human CD38 (Homo sapiens, UniProt P28907); experiment: human recombinant CD38 enzyme assay (hydrolysis of NAD+); type: biochemical; conditions: human recombinant CD38, 0.4 nM enzyme, 62.5 μM NAD+; read-out: hCD38 BioChem IC50
T1 sequence (P28907 1-300): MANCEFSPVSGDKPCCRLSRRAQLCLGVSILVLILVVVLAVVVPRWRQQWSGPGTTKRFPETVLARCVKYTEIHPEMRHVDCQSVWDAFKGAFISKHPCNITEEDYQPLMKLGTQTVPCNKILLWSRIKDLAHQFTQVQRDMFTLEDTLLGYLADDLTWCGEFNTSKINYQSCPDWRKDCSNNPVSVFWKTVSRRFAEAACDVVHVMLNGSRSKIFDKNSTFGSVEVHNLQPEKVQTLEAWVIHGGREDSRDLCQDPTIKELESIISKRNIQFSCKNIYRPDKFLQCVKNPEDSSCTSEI
How it was run: (§1)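 Residual substrate after a one-hour room-temperature incubation of recombinant CD38 with NAD+ and test compound is measured by an ADH/diaphorase coupled resorufin signal (540 nm excitation, 590 nm emission); reduced NAD+ consumption reflects inhibition.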

mouse CD38 = biological target: T2, mouse CD38 (Mus musculus, UniProt P56528); experiment: mouse recombinant CD38 enzyme assay (hydrolysis of NAD+); type: biochemical; conditions: read-out: mCD38 BioChem IC50
T2 sequence (P56528 1-304): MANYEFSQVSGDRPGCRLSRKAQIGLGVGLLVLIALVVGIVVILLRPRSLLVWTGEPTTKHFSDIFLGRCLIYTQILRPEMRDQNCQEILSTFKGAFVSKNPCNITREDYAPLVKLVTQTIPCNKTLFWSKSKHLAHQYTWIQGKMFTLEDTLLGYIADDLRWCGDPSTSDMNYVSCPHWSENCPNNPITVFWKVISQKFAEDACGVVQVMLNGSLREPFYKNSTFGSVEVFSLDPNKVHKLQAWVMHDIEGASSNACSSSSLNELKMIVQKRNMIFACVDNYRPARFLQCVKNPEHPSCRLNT
How it was run: as §1

[1] = biological target: T3, endogenous CD38 in HL60 cells (Homo sapiens, UniProt P28907); experiment: cellular CD38 assay in HL60 cells (cellular NAD levels); type: cell-based; conditions: all-trans retinoic acid, 24 hours, read-out: hCD38 HL60 ATRA NAD Cell Diaphorase IC50
T3 construct: endogenous in cells; host or cells: HL60 (leukemic cells, treated with all-trans retinoic acid)
T3 sequence (P28907 1-300): T1 sequence (P28907 1-300)
How it was run: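 Endogenous CD38 inhibition is inferred from NAD levels in HL60 cells after 24 h compound exposure at 20000 cells per well. A lytic cycling readout (0.2 U/mL diaphorase, 0.8 U/mL alcohol dehydrogenase, resazurin, FMN, ethanol, 0.2% Triton X-100, Tris/EDTA pH 8.4) ran 60 min at ambient temperature. Resorufin fluorescence was read at 540/590 nm.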

| SMILES | IC50 (human CD38) [nM] | IC50 (mouse CD38) [nM] | IC50 [1] [nM] |
| --- | --- | --- | --- |
| O=C(N[C@H]1C[C@H](c2ccc(F)cc2F)C1)c1nccc(-n2ccnc2)n1 [Compound 239, N-((1r,3r)-3-(2,4-difluorophenyl)cyclobutyl)-4-(1H-imidazol-1-yl)pyrimidine-2-carboxamide] | 61.2 | 33.6 | 3130 |
| Cn1cncc1-c1ccnc(C(=O)N[C@H]2CCN(c3ccccc3)C2)n1 [Compound 246, (S)-4-(1-methyl-1H-imidazol-5-yl)-N-(1-phenylpyrrolidin-3-yl)pyrimidine-2-carboxamide] | 82.9 | 61.8 | 8770 |
| O=C(N[C@H]1CCN(c2ccccc2)C1)c1nccc(-n2ccnc2)n1 [Compound 247, (S)-4-(1H-imidazol-1-yl)-N-(1-phenylpyrrolidin-3-yl)pyrimidine-2-carboxamide] | 233 | 139 | 14400 |
| CC(C)(O)[C@H]1CC[C@H](NC(=O)c2nccc(-n3ccnc3)n2)CC1 [Compound 251, N-((1r,4r)-4-(2-hydroxypropan-2-yl)cyclohexyl)-4-(1H-imidazol-1-yl)pyrimidine-2-carboxamide] | 207 | 58.7 | 5110 |
| Cn1cncc1-c1ccnc(C(=O)N[C@H]2CC[C@](O)(c3ccccc3)CC2)n1 [Compound 252, N-((1s,4s)-4-hydroxy-4-phenylcyclohexyl)-4-(1-methyl-1H-imidazol-5-yl)pyrimidine-2-carboxamide] | 255 | 184 | 4880 |
| Cn1cncc1-c1ccnc(C(=O)N[C@H]2CC[C@H](C(C)(C)O)CC2)n1 [Compound 254, N-((1r,4r)-4-(2-hydroxypropan-2-yl)cyclohexyl)-4-(1-methyl-1H-imidazol-5-yl)pyrimidine-2-carboxamide] | 93.5 | 31.2 | 3670 |
| CCO[C@H]1CC[C@H](NC(=O)c2nccc(-c3cncn3C)n2)CC1 [Compound 255, N-((1r,4r)-4-ethoxycyclohexyl)-4-(1-methyl-1H-imidazol-5-yl)pyrimidine-2-carboxamide] | 71.5 | 28.7 | 2760 |
| O=C(N[C@H]1CC[C@H](O)CC1)c1nccc(-n2ccnc2)n1 [Compound 257, N-((1r,4r)-4-hydroxycyclohexyl)-4-(1H-imidazol-1-yl)pyrimidine-2-carboxamide] | 124 | 43.4 | 4520 |
| CCO[C@H]1CC[C@H](NC(=O)c2nccc(-n3ccnc3)n2)CC1 [Compound 258, N-((1r,4r)-4-ethoxycyclohexyl)-4-(1H-imidazol-1-yl)pyrimidine-2-carboxamide] | 71.6 | 36.4 | 5580 |
| Cn1cncc1-c1ccnc(C(=O)N[C@H]2CC[C@H](CO)CC2)n1 [Compound 259, N-((1r,4r)-4-(hydroxymethyl)cyclohexyl)-4-(1-methyl-1H-imidazol-5-yl)pyrimidine-2-carboxamide] | 46.1 | 15.6 | 2280 |
| O=C(N[C@H]1CC[C@](O)(c2ccccc2)CC1)c1nccc(-n2ccnc2)n1 [Compound 260, N-((1s,4s)-4-hydroxy-4-phenylcyclohexyl)-4-(1H-imidazol-1-yl)pyrimidine-2-carboxamide] | 271 | 161 | 10600 |
| O=C(N[C@H]1CC[C@H](CO)CC1)c1nccc(-n2ccnc2)n1 [Compound 261, N-((1r,4r)-4-(hydroxymethyl)cyclohexyl)-4-(1H-imidazol-1-yl)pyrimidine-2-carboxamide] | 86.3 | 39.1 | 3100 |
| O=C(NC1CCN(c2ccccc2)CC1)c1nccc(-n2ccnc2)n1 [Compound 263, 4-(1H-imidazol-1-yl)-N-(1-phenylpiperidin-4-yl)pyrimidine-2-carboxamide] | 252 | 270 | 12500 |
| O=C(N[C@H]1CC[C@H](NCC(F)(F)F)CC1)c1nccc(-n2ccnc2)n1 [Compound 265, 4-(1H-imidazol-1-yl)-N-((1r,4r)-4-((2,2,2-trifluoroethyl)amino)cyclohexyl) pyrimidine-2-carboxamide] | 83.4 | 35.9 | 4170 |
| O=C(N[C@H]1C[C@H](c2ccc(C(F)(F)F)nc2)C1)c1nccc(-n2ccnc2)n1 [Compound 269, 4-(1H-imidazol-1-yl)-N-((1r,3r)-3-(6-(trifluoromethyl)pyridin-3-yl)cyclobutyl)pyrimidine-2-carboxamide] | 199 | 175 | 3950 |
| Cn1cncc1-c1ccnc(C(=O)N[C@H]2C[C@H](c3ccc(C(F)(F)F)nc3)C2)n1 [Compound 273, 4-(1-methyl-1H-imidazol-5-yl)-N-((1r,3r)-3-(6-(trifluoromethyl)pyridin-3-yl)cyclobutyl)pyrimidine-2-carboxamide] | 71.9 | 53.7 | 2470 |

The next compounds have a lower IC50 (human CD38) than those just listed; values first:

| IC50 (human CD38) [nM] | IC50 (mouse CD38) [nM] | IC50 [1] [nM] | SMILES |
| --- | --- | --- | --- |
| 40.9 | 15.3 | 2100 | Cn1cncc1-c1ccnc(C(=O)N[C@H]2CC[C@H](NCC(F)(F)F)CC2)n1 [Compound 264, 4-(1-methyl-1H-imidazol-5-yl)-N-((1r,4r)-4-((2,2,2-trifluoroethyl)amino)cyclohexyl)pyrimidine-2-carboxamide] |
| 35.4 | 96.3 | 1400 | O=C(N[C@H]1C[C@H](c2ccnc(C(F)(F)F)c2)C1)c1nccc(-n2ccnc2)n1 [Compound 268, 4-(1H-imidazol-1-yl)-N-((1r,3r)-3-(2-(trifluoromethyl)pyridin-4-yl)cyclobutyl)pyrimidine-2-carboxamide] |
| 28.8 | 21.3 | 2370 | Cn1cncc1-c1ccnc(C(=O)N[C@H]2C[C@H](c3ccc(F)cc3)C2)n1 [Compound 242, N-((1r,3r)-3-(4-fluorophenyl)cyclobutyl)-4-(1-methyl-1H-imidazol-5-yl)pyrimidine-2-carboxamide] |
| 28.1 | 14.6 | 3720 | Cn1cncc1-c1ccnc(C(=O)N[C@H]2C[C@H](c3ccc(F)cc3F)C2)n1 [Compound 243, N-((1r,3r)-3-(2,4-difluorophenyl)cyclobutyl)-4-(1-methyl-1H-imidazol-5-yl)pyrimidine-2-carboxamide] |
| 27.9 | 13.3 | 2060 | Cn1cncc1-c1ccnc(C(=O)N[C@H]2C[C@H](c3ccccc3F)C2)n1 [Compound 240, N-((1r,3r)-3-(2-fluorophenyl)cyclobutyl)-4-(1-methyl-1H-imidazol-5-yl)pyrimidine-2-carboxamide] |
| 16.7 | 14.4 | 2050 | Cn1cncc1-c1ccnc(C(=O)N[C@H]2C[C@H](c3cccc(F)c3)C2)n1 [Compound 241, N-((1r,3r)-3-(3-fluorophenyl)cyclobutyl)-4-(1-methyl-1H-imidazol-5-yl)pyrimidine-2-carboxamide] |
| 13.7 | 43.9 | 1130 | Cn1cncc1-c1ccnc(C(=O)N[C@H]2C[C@H](c3ccnc(C(F)(F)F)c3)C2)n1 [Compound 270, 4-(1-methyl-1H-imidazol-5-yl)-N-((1r,3r)-3-(2-(trifluoromethyl)pyridin-4-yl)cyclobutyl)pyrimidine-2-carboxamide] |
| 10.7 | 13.8 | 874 | CC(C)(O)c1ccc(NC(=O)c2ccnc(-n3ccnc3)n2)cn1 [Compound 248, N-(6-(2-hydroxypropan-2-yl)pyridin-3-yl)-2-(1H-imidazol-1-yl)pyrimidine-4-carboxamide] |
| 2.8 | 1 | 749 | COCCOc1cc(C(=O)Nc2ccc(C(F)(F)F)nc2)nc(-n2ccnc2)c1 [Compound 245, 6-(1H-imidazol-1-yl)-4-(2-methoxyethoxy)-N-(6-(trifluoromethyl)pyridin-3-yl)picolinamide] |
| 2.5 | 0.3 | 403 | COCCOc1cc(C(=O)Nc2ccc(C(F)(F)F)nc2)nc(-c2cncn2C)n1 [Compound 267, 6-(2-methoxyethoxy)-2-(1-methyl-1H-imidazol-5-yl)-N-(6-(trifluoromethyl)pyridin-3-yl)pyrimidine-4-carboxamide] |
| 1.9 | 1 | 499 | COCCOc1cc(C(=O)Nc2ccc(C(F)F)nc2)nc(-n2ccnc2)c1 [Compound 244, N-(6-(difluoromethyl)pyridin-3-yl)-6-(1H-imidazol-1-yl)-4-(2-methoxyethoxy)picolinamide] |

— US20230116972A1, “CD38 MODULATORS AND METHODS OF USE THEREOF” (Cytokinetics, Inc., priority 2021, published 2023)
